This is an account of results in PubChem BioAssay (NCI).

Several values for one entry are separate records, joined by “and”; a condition that tells them apart may be missing. Identical values can stand only once.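 Assay format: 96-well plates, 48-hour exposure. GI50 marks 50% less growth. TGI marks complete inhibition of growth.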

Common to all, as to assay: NCI tumour cell line growth inhibition, 48 h
The subject of assay [1] is DMS 114 small cell lung.
In assay [2] the test system is RXF-631 renal.
Assay [3] relates to SNB-78 CNS.
For assay [4], the system named is DU-145 prostate.
Assay [5] deals with HS 578T breast.
Assay [6] concerns MDA-MB-435.
In assay [7] the test system is MDA-N.
The test system of assay [8] is PC-3 prostate.
In assay [9] the test system is T-47D breast.
The test system of assay [10] is P388 leukemia.
Assay [11] has as its system P388/ADR leukemia.
Assay [12] has as its system SN12K1 renal.

For the compound `N#C/C(=C\c1ccccc1O)C(N)=O`, the TGI in [1], in assay [2] and in assay [3] was greater than 100 µM each time.

Consider `OCCOc1ccc(-c2cc(-c3ccccn3)nc(-c3ccccn3)c2)cc1`, for which the TGI in [1] is 1.93 µM; in [4], greater than 30.5 µM; in [5], greater than 100 µM; in assay [6], greater than 100 µM; in assay [7], greater than 100 µM; in [8], greater than 100 µM. The TGI in [2], in assay [3] and in assay [9] was greater than 100 µM each time.

With `CC1[C@@H]2[C@@H](C=C3C4CCC5Cc6nc7c(nc6C[C@@]5(C)C4C[C@H](O)[C@]32CO)CC2CCC3C4=C[C@H]5O[C@@]6(O[C@@](C)(CO)C[C@@H]6O)C(C)[C@@]5(O)[C@]4(C)[C@@H](O)CC3[C@]2(C)C7)O[C@]12CCC(C)(C)O2` (some centres not stated), the TGI in [1] was greater than 3.65 µM; in [10], greater than 3.65 µM; in assay [11], greater than 3.65 µM; in [12], greater than 3.65 µM; in assay [3], 0.34 µM and 0.642 µM. For the same compound, in assay [3], the GI50 was less than 0.000365 µM.

As for `CCOc1ccc(NC(=O)CC2SC(=Nc3ccc(Cl)cc3)NC2=O)cc1` (configuration not stated), the TGI in assay [1] and in assay [2] was greater than 100 µM in each case.

As for `N#Cc1cccc(N2C(=O)c3c(c(-c4ccccc4)c(-c4ccc(Sc5ccc(-c6c(-c7ccccc7)c7c(c(-c8ccccc8)c6-c6ccccc6)C(=O)N(c6cccc(C#N)c6)C7=O)cc5)cc4)c(-c4ccccc4)c3-c3ccccc3)C2=O)c1`, the TGI in assay [1], in assay [2] and in assay [3] was greater than 100 µM in each case.

As for `CN(C)c1ccc2c(c1)C(=O)N(OS(=O)(=O)c1ccc([N+](=O)[O-])cc1)C2=O`, the TGI in assay [1] was greater than 10 µM; in assay [2], 47.1 µM; in [3], 73.8 µM.

Turning to `CC1=CC2CC(C)=C(CC[C@]3(C)CC[C@H]([C@@H](C)C(=O)O)OO3)C(C)(C)C2CC1` (some centres not stated), the TGI turned out to be 0.973 µM in [1], 2.95 µM in [2] and 4.09 µM in assay [3].

For the compound `FC(F)(F)C1(Cl)C(c2ccccc2)=C1c1ccccc1`, the TGI is 25.6 µM in assay [1], 29.2 µM in [2] and 33.1 µM in assay [3].

As for `Cc1cccc(C(=O)c2cccc3ccccc23)c1C(=O)O`, the TGI in [1] is 13.8 µM; in [2], greater than 100 µM; in assay [3], greater than 100 µM.

For the compound `Nc1nc(CCC(=O)Nc2cccc(C(F)(F)F)c2)cc(-c2cccc3ccccc23)n1`, the TGI in [1], in assay [2] and in assay [3] was greater than 100 µM each time.

Consider `O=C1c2ccccc2C2(O)Nc3cc(O)ccc3C12O` (configuration not stated), for which the TGI in [1], in assay [2] and in [3] was greater than 100 µM each time.

Regarding `O=C1OC(=O)c2c1c(-c1ccccc1)cn2-c1ccc(Cl)cc1`, the TGI in assay [1], in [2] and in assay [3] was greater than 100 µM in each case.

As to `c1ccc(SC2(Sc3ccccc3)CCCC2)cc1`, the TGI in assay [1], in assay [2] and in assay [3] was greater than 100 µM in each case.
